Results as given in publication PMC2360332 (British Journal of Cancer, 2007).
Read-outs that look alike come from different tables or passages of the source.

Key:
[1] = tested on: T47D human breast cancer cells; test: Growth of T47D human breast cancer cells in culture (7 days, viable cell count); format: cell-based; conditions: for Inhibition of basal (no E2) growth of T47D cells (in words): 10^−8 to 10^−5 M, data not shown; for Inhibition of E2-stimulated growth of T47D cells, single agent (in words): E2 10^−9 M added 1 h after agent, daily for 7 days, agent used alone, concentration–response in Figure 1A
Experimental: The MCF-7 cells were maintained in monolayer culture in Dulbecco's modification of Eagle's medium (DMEM) supplemented with 5% fetal bovine serum, glutamine (2 mM), nonessential amino acids (1%), and bovine insulin (1 μg ml^−1). The T47D human breast cancer cells were maintained in monolayer culture in RPMI-1640 medium supplemented with 10% fetal bovine serum, 100 IU ml^−1 penicillin, 100 μg ml^−1 streptomycin, 0.25 μg ml^−1 amphotericin B, and 8 μg ml^−1 bovine insulin in T-75 flasks with 2–3 medium changes per week. Cells were maintained at 37°C in an atmosphere of 5% CO2, 95% air. To evaluate the oestrogen-stimulated growth of these cells, they were released from monolayer using 0.25% trypsin/0.53 mM EDTA and suspended in oestrogen-free medium comprised of DMEM (high glucose, phenol red-free), supplemented with 10% charcoal-stripped bovine calf serum, 2 mM glutamine, 100 IU ml^−1 penicillin, and 100 μg ml^−1 streptomycin. One millilitre containing 1.2 × 10^5 cells was seeded into each well of a 24-well plate coated with collagen IV (BD Biosciences, Bedford, MA, USA). […] Control wells received the vehicle. Medium was changed every other day before treatment. One day after the last treatment, cells were trypsinised and resuspended in oestrogen-free medium, and counted using a haemacytometer following dilution with trypan blue. Viable cell number is reported.
T47D (1 × 10^5) cells were seeded into wells of collagen-coated plates in oestrogen-free medium. Medium was changed daily. Twenty-four hours after seeding, AFPep and/or Tam were added. One hour later E2 (10^−9 M) was added. Cells were treated daily for 7 days after which cells were harvested and counted in a hemacytometer. Mean viable cell number of six replicate wells ±s.e. was determined. (A) Concentration–response curve of each agent alone. Inhibition (%) of E2-stimulated growth is reported. (▪) Tam; (▴) AFPep. […] Mean viable cell number is reported.

[2] = tested on: MCF-7 human breast cancer xenografts; test: MCF-7 human breast cancer xenograft under kidney capsule of SCID mice; format: in vivo, human (cells), SCID mice (host); conditions: E2 supplementation, five mice per group
From the text: Ten million MCF-7 human breast cancer cells were harvested from culture, centrifuged into a pellet, solidified into a fibrin clot, and implanted under the kidney capsule of SCID mice as described previously ([Bennett et al, 1985], [2002], [2006]; [Mesfin et al, 2001]; [Parikh et al, 2005]). Oestrogen supplementation was accomplished by s.c. implantation of a 5 mm silastic tubing capsule containing solid E2 inserted on the day of tumour implantation. […] The tumour-bearing kidney was exposed during survival laparotomy at 14 and 28 days after implantation and tumour size was measured using a dissecting microscope equipped with an ocular micrometer, noting the long (D) and short (d) diameters of the tumour. Five replicate mice were included in each treatment group. Mean tumour volume (0.52d^2D) was calculated for each group, and used for display of growth curves. Significance of differences between groups was tested using the one-sided Wilcoxon rank sum test.
Pieces of MCF-7 tumour were implanted under the kidney capsule of SCID mice. Oestradiol was provided via an E2-containing silastic tubing subcutaneous implant.

[3] = Toxicity in MNU-exposed rats (body weight, organ weights, fur texture, cage activity); format: in vivo, Sprague–Dawley rats; conditions: for Body weight / Uterine weight / Heart weight: 20 days; for Body weight: control 283±30; for Uterine weight: control 0.54±0.15; for Heart weight: control 1.10±0.14
From the text: [Swanson et al, 1997]). […] In the therapy model (human tumour xenografts growing in mice) and in the prevention model (MNU-induced mammary cancers in rats), the toxicity of […]

[4] = tested on: immature mouse uterus; test: Immature mouse uterine growth assay; format: in vivo, Swiss mice; conditions: uteri harvested 22 h later, five mice per group; for Growth of immature mouse uterus (in words): single agent i.p., Tam 1 μg or AFPep 10 μg
From the text: Control mice received the vehicle. Twenty-two hours later, uteri were harvested, trimmed free of connective tissue, and weighed. Uterine weights were normalised to donor mouse body weight. There were five replicate mice per group.
Twenty-two hours after treatment, uteri were harvested, weighed, and normalised to mouse body weight.

[5] = tested on: oestrogen receptor (ER); test: Inhibition of binding of [^3H]E2 to oestrogen receptor (rabbit uterine cytosol); conditions: rabbit uterine cytosol 2.5 mg protein ml^−1, 20 μl of 10 nM 6,7-[^3H]E2, overnight at 4°C, pH 7.4, dextran-coated charcoal; triplicate
Experimental: Rabbit uteri (Pel-Freez Biological, Rogers, AR, USA) were used as a source of ER. Uteri were pulverised in a stainless-steel impact mortar under liquid nitrogen and homogenised (20% w/v) in buffer (10 mM Tris, pH 7.4, 1.5 mM EDTA, 10% glycerol, 10 mM monothioglycerol, and 10 mM sodium molybdate) on ice. Centrifugation (50 000 g) for 1 h yielded cytosol, which was adjusted with buffer to 2.5 mg protein ml^−1. All incubations were carried out in triplicate, each containing 100 μl of cytosol, 20 μl of 10 nM 6,7-[^3H]oestradiol (6,7-[^3H]E2), and 80 μl of antagonist. After incubation overnight at 4°C, tubes received 300 μl of dextran-coated charcoal suspension; tubes were agitated for 15 min, and then centrifuged (1000 g) for 15 min.
Rabbit uterine cytosol was used as a source of ER. Test agents (80 μl) at the final concentrations indicated were incubated in triplicate with 100 μl of cytosol, and 20 μl of 10 nM 6,7-[^3H]E2 (50 Ci mmol^−1). The concentration of the [^3H]E2 complex with receptor in the presence of the test agent is expressed as a percentage of the amount of complex formed in the absence of test agent.

[6] = tested on: phosphorylation of ER at serine 118; conditions: cited from earlier work
From the text: Mechanistically, AFPep is quite different from Tam. […] In fact, in this study and ...

[7] = tested on: MNU-induced breast cancers in rats; test: Prevention of MNU-induced mammary cancers in rats; conditions: for Inhibition of tumour formation (in words): Tam 6.25 μg animal^−1 day^−1 or higher, AFPep 270 μg animal^−1 day^−1; for Incidence (percent of rats with one or more tumours when killed, approximately 120 days after MNU): 20 days from 10 days after MNU 50 mg kg^−1, n=30 rats, control 78%; for Volume (sum of the volumes of tumours in each group) / Multiplicity (total number of tumours/number of rats) / Latency (mean number of tumour-free days±s.d.): 20 days; for Volume (sum of the volumes of tumours in each group): control 69.0; for Multiplicity (total number of tumours/number of rats): control 2.1; for Latency (mean number of tumour-free days±s.d.): control 80±31
Experimental: Female rats were housed three per cage in a room maintained at 22±1°C, and artificially lighted for 12 h per day. At 50 days of age, rats received a single injection of MNU (50 mg kg^−1 body weight) or vehicle in the jugular vein. N-methyl-N-nitrosourea was administered to animals in the various treatment groups according to a predetermined randomisation chart, so as to ensure uniform distribution of the carcinogen across the groups. […] A control group of animals received daily 0.2 ml s.c. injections of saline for the same time period as AFPep administration and experienced the maximal number of tumours. Starting 30 days after MNU treatment, all rats were palpated weekly for detection of mammary tumours, noting number, location, and size. Tumour burden was determined noninvasively using calipers to measure the long (D) and short (d) diameter of each tumour. Assuming that tumours were ellipsoid shaped, tumour volume was estimated as (0.52d^2D). Cage activity of all animals was monitored daily for gross signs of toxicity. At necropsy, body weight and organ weights were assessed as indicators of toxicity.
Sprague–Dawley female rats (n=30 rats group^−1) received MNU (50 mg kg^−1) at the age of 50 days. […] Animals were palpated weekly. The incidence of tumours is shown as a function of time after carcinogen treatment.

[8] = design: method as in earlier work; conditions: high doses; ref Mesfin et al, 2001; Bennett et al, 2002, 2006; Parikh et al, 2005; cited from earlier work
[9] = effective single-agent dose: AFPep 10 μg mouse^−1 day^−1 i.p. or Tam 1 μg mouse^−1 day^−1 p.o., over a 30-day period
[10] = suboptimal dose: AFPep 0.1 μg i.p., Tam 0.05 μg p.o. per mouse per day, single agents
[11] = higher dose: AFPep 270 or Tam 6.25 μg/rat/day
[12] = suboptimal dose: AFPep 100, Tam 0.05, or both (100+0.05) μg/rat/day
[13] = higher dose: AFPep 270 μg/rat/day s.c. or Tam 6.25 μg/rat/day oral gavage
[14] = higher dose: AFPep 270 (marked * P<0.05 vs control) or Tam 6.25 μg/rat/day
[15] = suboptimal dose: AFPep 100 μg/rat/day s.c., Tam 0.05 μg/rat/day oral gavage, or both (100+0.05)
[16] = suboptimal dose: AFPep 100, Tam 0.05, or both (100+0.05) μg/rat/day, AFPep and AFPep+Tam marked * P<0.05 vs control
[17] = higher dose: AFPep 270 μg/rat/day

In the case of CC/C(=C(\c1ccccc1)c1ccc(OCCN(C)C)cc1)c1ccccc1 [Tam, Tamoxifen, reference compound], the “Inhibition of basal (no E2) growth of T47D cells (in words)” value [1] is reported as “neither Tam nor AFPep inhibited the basal (no E2) growth”, the “Inhibition of E2-stimulated growth of T47D cells, single agent (in words)” value [1] is reported as “inhibited the E2-stimulated growth” and the “Growth of MCF-7 tumour xenografts (in words)” value [2, 9] is reported as “completely prevented the growth of MCF-7 tumour xenografts”. For the same molecule, the “Growth of MCF-7 tumour xenografts (in words)” value [2, 10] was “tumour growth occurred, although it was less than tumour growth in nontreated mice”, the Body weight [3, 11] was 273 ± 28 g and the “Effect on uterine growth (in words)” value ([3]; rats, low doses, whether or not AFPep was present) was “no effect on uterine growth”. It also gave a Uterine weight [3, 12] of 0.49 ± 0.17 g, a Heart weight [3, 12] of 1.12 ± 0.13 g and a Body weight [3, 12] of 282 ± 31 g. For the same molecule, the “Growth of immature mouse uterus (in words)” value [4] was “stimulates the growth of immature mouse uterus”, the “Inhibition of binding of [^3H]E2 to ER (in words)” value [5] was “concentration-dependent inhibition of E2 binding” and the “Stimulation of phosphorylation of ER at serine 118 (in words)” value ([6]; following binding to receptor, ref Chen et al, 2002) was “stimulates phosphorylation of ER at serine 118”. For the same molecule, the “Inhibition of tumour formation (in words)” value [7] was “significant inhibition of tumour formation”, the “Incidence (percent of rats with one or more tumours when killed, approximately 120 days after MNU)” value [7, 13] was 26% and the “Volume (sum of the volumes of tumours in each group)” value (from here on “Volume”) [7, 14] was 70.2 cm^3. For the same molecule, the “Multiplicity (total number of tumours/number of rats)” value [7, 11] was 0.5 tumours/rat, the “Latency (mean number of tumour-free days±s.d.)” value [7, 11] was 85 ± 15 days and the “Incidence (percent of rats with one or more tumours when killed, approximately 120 days after MNU)” value [7, 15] was 73%. For the same molecule, the “Volume” value [7, 16] was 62.4 cm^3, the “Multiplicity (total number of tumours/number of rats)” value [7, 12] was 1.3 tumours/rat and the “Latency (mean number of tumour-free days±s.d.)” value [7, 12] was 95 ± 36 days.

In the case of cyclo(EKTOVNOGN) (head to tail) [AFPep], the “Inhibition of basal (no E2) growth of T47D cells (in words)” value [1] is reported as “neither Tam nor AFPep inhibited the basal (no E2) growth”, the “Inhibition of E2-stimulated growth of T47D cells, single agent (in words)” value [1] is reported as “inhibited the E2-stimulated growth” and the “Growth of MCF-7 tumour xenografts (in words)” value [2, 9] is reported as “completely prevented the growth of MCF-7 tumour xenografts”. For the same molecule, the “Growth of MCF-7 tumour xenografts (in words)” value [2, 10] was “tumour growth occurred, although it was less than tumour growth in nontreated mice”, the Uterine weight [3, 17] was 0.62 ± 0.17 g and the Heart weight [3, 17] was 1.09 ± 0.13 g. The Body weight [3, 11] was 280 ± 29 g, the “Effect on body weight, fur texture, cage activity, organ weights (in words)” value ([3]; rats, therapeutic doses for 2–3 weeks) was “no effect on body weight, fur texture, or cage activity during the lifespan of the animals, or on organ weights obtained at necropsy” and the Uterine weight [3, 12] was 0.52 ± 0.15 g. The Heart weight [3, 12] was 1.12 ± 0.14 g, the Body weight [3, 12] was 285 ± 24 g and the “Tam-induced growth of immature mouse uterus (in words)” value ([4]; AFPep 10 μg i.p. 1 h before Tam 1 μg i.p., Figure 4 * P<0.05 vs Tam alone, Dunnett's test) was “significantly inhibits the Tam-induced growth of the immature mouse uterus”. The “Growth of immature mouse uterus (in words)” value [4] was “does not stimulate uterine growth”, the “Inhibition of binding of [^3H]E2 to ER (in words)” value [5] was “did not inhibit the binding of [^3H]E2 to ER” and the “Stimulation of phosphorylation of ER at serine 118 (in words)” value ([6]; ref Bennett et al, 2006) was “did not stimulate phosphorylation of ER at serine 118”. For the same molecule, the “Inhibition of phosphorylation of ER following ligand binding (in words)” value ([6]; stated in Discussion as function of AFPep, not measured in this paper) was “inhibit the phosphorylation of ER that follows ligand binding to ER”, the “Toxicity or side effects in previous work (in words)” value [8] was “no evidence of toxicity or side effects has been detected” and the “Inhibition of tumour formation (in words)” value [7] was “significant inhibition of tumour formation”. For the same molecule, the “Incidence (percent of rats with one or more tumours when killed, approximately 120 days after MNU)” value [7, 13] was 40%, the “Volume” value [7, 14] was 34.5^* cm^3 and the “Multiplicity (total number of tumours/number of rats)” value [7, 11] was 0.5 tumours/rat. For the same molecule, the “Latency (mean number of tumour-free days±s.d.)” value [7, 11] was 88 ± 16 days, the “Incidence (percent of rats with one or more tumours when killed, approximately 120 days after MNU)” value [7, 15] was 63% and the “Volume” value [7, 16] was 39.1^* cm^3. The “Multiplicity (total number of tumours/number of rats)” value [7, 12] was 1.1 tumours/rat and the “Latency (mean number of tumour-free days±s.d.)” value [7, 12] was 97 ± 33 days.
